# Data published in patent US7541032B2, “Antigen uptake receptor for Candida albicans on dendritic cells” (priority 2002, dated 2009).
# T1: DC-SIGN (Homo sapiens, UniProt Q9NNX6)
# T1 construct: expressed in transfected cells
# T1 sequence (Q9NNX6 1-404): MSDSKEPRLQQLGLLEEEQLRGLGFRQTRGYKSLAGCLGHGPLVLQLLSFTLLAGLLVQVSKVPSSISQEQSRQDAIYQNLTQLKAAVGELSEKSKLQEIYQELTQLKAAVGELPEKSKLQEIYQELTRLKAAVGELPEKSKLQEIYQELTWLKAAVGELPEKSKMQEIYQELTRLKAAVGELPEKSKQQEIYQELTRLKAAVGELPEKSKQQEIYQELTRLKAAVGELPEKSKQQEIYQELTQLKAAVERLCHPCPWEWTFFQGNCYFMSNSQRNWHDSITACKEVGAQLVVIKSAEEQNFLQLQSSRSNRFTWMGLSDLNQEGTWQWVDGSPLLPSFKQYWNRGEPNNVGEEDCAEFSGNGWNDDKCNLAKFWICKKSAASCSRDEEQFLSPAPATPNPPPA
# T2: Activated Leukocyte Cell Adhesion Molecule ALCAM (UniProt Q13740 28-583, limits assumed)
# T2 construct: whole, on cells; also called K-ALCAM (K562 cells transfected with ALCAM)
# T2 sequence (looked up): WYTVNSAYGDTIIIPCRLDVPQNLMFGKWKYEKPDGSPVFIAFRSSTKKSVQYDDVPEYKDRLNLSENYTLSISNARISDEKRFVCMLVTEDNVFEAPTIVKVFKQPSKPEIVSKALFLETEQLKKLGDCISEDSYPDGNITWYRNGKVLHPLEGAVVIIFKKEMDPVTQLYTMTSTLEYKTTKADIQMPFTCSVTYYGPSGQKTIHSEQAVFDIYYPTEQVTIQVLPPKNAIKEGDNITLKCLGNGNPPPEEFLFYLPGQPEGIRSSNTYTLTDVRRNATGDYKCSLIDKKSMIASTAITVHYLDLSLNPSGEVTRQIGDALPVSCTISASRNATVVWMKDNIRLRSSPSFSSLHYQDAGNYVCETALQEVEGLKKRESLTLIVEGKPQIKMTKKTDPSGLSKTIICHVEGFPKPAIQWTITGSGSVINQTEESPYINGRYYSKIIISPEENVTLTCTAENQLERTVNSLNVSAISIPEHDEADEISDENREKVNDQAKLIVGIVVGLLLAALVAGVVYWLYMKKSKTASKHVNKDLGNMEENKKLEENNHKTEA
# What was measured:
# DC-SIGN [1] = biological target: T1, DC-SIGN; experiment: Binding of conidiae and hyphae of other Candida strains/species and Aspergillus fumigatus to K-SIGN cells; type: cell-based
# Experimental: (§1) DC or K562 transfected cells were stained with anti-CD45-APC prior to exposure to FITC labeled live or heat inactivated Candida. DC or K562 cells expressing DC-SIGN or ALCAM (control) were or were not preincubated for 10 minutes at room temperature with mannan (300 μg/mL), mannose (100 mM), facose (100 mM), EGTA (5 mM), or a mixture of AZN-D1 and AZN-D3 (20 μg/mL), in 20 mM Tris pH 8.0, containing 150 mM NaCl, 1 mM CaCl2, 2 mM MgCl2, and 1% BSA (TSA buffer) or, when EGTA was used, in PBS. Subsequently, FITC labeled Candida were resuspended to the appropriate concentrations either in TSA or PBS and added in various cell/C. albicans ratios. After incubation, cell-Candida conjugates were analyzed by flow cytometry, and the relative difference in mean fluorescence intensity of the double labeled events compared with that of control cells was calculated. Cells were labeled with anti-CD45APC to discriminate cells binding FITC-labeled yeast particles from yeast aggregates.
# Further studies were performed as above but using other strains or species of yeast and also comparing binding of the conidiae versus binding of the hyphal form of the organism. […] These are clinical strains isolated from patients. It is seen that the conidiae or single-celled form of the yeast bind to DC-SIGN better than do the hyphae. […]
# immature DC = experiment: Phagocytosis of FITC-labeled Candida by immature DC, confocal microscopy; type: cell-based, human; settings: 60 minutes at 37° C.
# Experimental: Immature DC (5×10^5) were incubated with unopsonized live FITC-labeled Candida cells (2.5×10^6) in a total volume of 500 μL at 37° C. in a water bath with orbital shaking at 150 rpm for various periods of time. At the end of the incubation period, the DC binding Candida are separated from unbound Candida by a Ficoll gradient.
# The samples were then adhered on poly-L-lysine coated glass coverslips, fixed in 1% paraformaldehyde in PBS for 15 minutes at room temperature, and permeabilized in cold methanol for 5 minutes on ice. After a blocking step in PBS/3% BSA for 60 minutes at room temperature, cells were labeled with mAb (10 μg/mL in PBS/3% BSA) for 60 minutes at room temperature and subsequently incubated with Cy5-conjugated Goat-anti-Mouse F(ab′)2 fragments for 30 minutes at room temperature. Finally, the anti-bleach reagent Mowiol was added, and samples were analyzed using a MRC1024 confocal microscope (Bio-Rad).
# It was recently shown that DC-SIGN is an antigen uptake receptor, facilitating phagocytosis within minutes (Engering et al., 2002). In order to determine whether DC-SIGN contributes also to the internalization of C. albicans by immature DC, experiments were performed allowing DC to interact with FITC-labeled Candida for 60 minutes at 37° C. to allow phagocytosis. […]
# [2] = system: immature dendritic cells (imDC); experiment: Binding of C. albicans to immature monocyte-derived dendritic cells in the presence of blocking agents, flow cytometry; type: cell-based, human; settings: for Inhibition of binding of Candida to imDC at ratios 1:2, 1:5 and 1:10 (FIG. 3D): imDC:C. albicans 1:2, 1:5, 1:10; for Inhibition of imDC/Candida binding (FIG. 5): panel of possible inhibitors, buffer TSA as control
# Experimental: (§2) Immature dendritic cells (imDC) were generated from human peripheral blood monocytes as described previously (Vissers et al., 2001). Briefly, monocytes were isolated by adherence to plastic and cultured in the presence of IL-4 (500 U/mL) and GM-CSF (800 U/mL) for 6-7 days. K562 transfectants either expressing DC-SIGN or ALCAM were generated by transfection of K562 cells with 10 μg of plasmid by electroporation as described previously (Geijtenbeek et al., 2000b; Nelissen et al., 2000). Positive cells were sorted several times to obtain stable transfectants with similar expression levels of DC-SIGN.
# (§3) Labeling of Candida cells was performed as follows: viable or heat killed (60 minutes at 56° C. or 30 minutes at 100° C.) yeast cells were resuspended to 2×10^8/mL in 0.1 mg/mL FITC in 0.05 M carbonate-bicarbonate buffer (pH 9.5). After incubation for 15 minutes at room temperature in the dark, FITC-labeled Candida cells were washed twice in PBS containing 1% BSA (PBA buffer) and analyzed by flow cytometry.
# as §1
# In an attempt to establish the contribution of both the mannose receptor and DC-SIGN, immature DC were incubated with specific inhibitors before interacting with C. albicans. Immature monocyte derived dendritic cells (50×10^3), which were CD45APC labeled, were incubated with heat-inactivated Candida (500×10^3) in the absence or presence of AZN-D1 and AZN-D3, anti-DC-SIGN mAb (20 μg/mL each), mannose (100 mM), and EGTA (5 mM).
# DC-SIGN [3] = biological target: T1, DC-SIGN; experiment: Binding of FITC-labeled C. albicans to K562 transfectants expressing DC-SIGN (K-SIGN), flow cytometry; type: cell-based; settings: for Inhibition of binding of C. albicans to K562 cells transfected with wild-type DC-SIGN (FIG. 1F): K562 wild-type DC-SIGN transfectants
# Experimental: as §2, §3, §1
# The erythroleukemic cell line K562 transfectants stably expressing DC-SIGN (K-SIGN) (Geijtenbeek et al., 2000a) were used to investigate the potential of C. albicans to bind DC-SIGN in the absence of any other known C. albicans, receptors. Binding to ICAM-3 fluorescent beads was used as a positive control for DC-SIGN function. […] The monoclonal antibodies AZN-D1 and AZN-L50 were used to detect DC-SIGN and ALCAM, respectively. The K562 transfectants stably express DC-SIGN and ALCAM, (FIGS. 1A-1 through 1A-3) with expression levels similar to that observed previously (Geijtenbeek et al., 2000a; Nelissen et al., 2000).
# Transfectant cells were labeled with CD45APC to discriminate cells binding FITC labeled yeast from yeast aggregates. […]
# [4] = biological target: T2, Activated Leukocyte Cell Adhesion …; experiment: fluorescent beads adhesion assay, flow cytometry, K562 transfectants
# Experimental: In inhibition studies, the bead adhesion assay was performed in the presence of 0.3 mg/mL mannan, 5 mM EGTA, or 20 μg/mL antibodies against DC-SIGN or ALCAM.
# The erythroleukemic cell line K562 transfectants stably expressing DC-SIGN (K-SIGN) (Geijtenbeek et al., 2000a) were used to investigate the potential of *C. albicans* to bind DC-SIGN in the absence of any other known *C. albicans*, receptors.
molecule,measurement,setting,value
O=C(O)CN(CCN(CC(=O)O)CC(=O)O)CC(=O)O [EDTA],Inhibition of binding of various Candida species and Aspergillus fumigatus to K-SIGN cells (FIGS. 8A-F),"DC-SIGN [1]; conidiae and hyphae, all cases except possibly C. tropicalis and C. parapsilosis (very low binding)",inhibited
O=C(O)CN(CCOCCOCCN(CC(=O)O)CC(=O)O)CC(=O)O [EGTA],Blocking of phagocytosis of Candida by immature DC,immature DC,almost completely blocked phagocytosis
same,"Blocking of binding of C. albicans to immature DC, in words (FIG. 3B)","[2]; EGTA 5 mM, heat-inactivated Candida",most effective blocking agent
same,"Inhibition of binding of Candida to imDC at ratios 1:2, 1:5 and 1:10 (FIG. 3D)",[2],largely eliminated binding
same,Inhibition of imDC/Candida binding (FIG. 5),[2],inhibited binding to a large degree
same,Inhibition of binding of conidiae and hyphae to K-SIGN cells (FIG. 6),"DC-SIGN [1]; C. albicans strains V13-12, V15-31, V18-17, C. dubliniensis strains V18-13, 4247, 3588",inhibited
same,Inhibition of binding of C. albicans by K-SIGN (FIG. 1C),"DC-SIGN [3]; AZN-D1 20 μg/mL, EGTA 5 mM",abrogates binding
same,Inhibition of binding of C. albicans to K562 cells transfected with wild-type DC-SIGN (FIG. 1F),DC-SIGN [3],prevented the binding
same,Inhibition of binding of live and heat-killed (56° C. or 100° C.) yeast forms of C. albicans by DC-SIGN (FIG. 2),"DC-SIGN [3]; K-SIGN, live and heat-inactivated yeast",inhibited
"C[C@H](O)[C@@H](O)[C@@H](O)[C@H](O)C=O [fucose, L-fucose]","Inhibition of binding of Candida to imDC at ratios 1:2, 1:5 and 1:10 (FIG. 3D)",[2],greater inhibitory effects
same,Inhibition of imDC/Candida binding (FIG. 5),[2],inhibited binding to a large degree
same,Inhibition of binding of C. albicans to K562 cells transfected with wild-type DC-SIGN (FIG. 1F),DC-SIGN [3],some inhibition
Mannan,"Inhibition of binding of Candida to imDC at ratios 1:2, 1:5 and 1:10 (FIG. 3D)",[2],did not block the binding
same,Inhibition of imDC/Candida binding (FIG. 5),[2],only minor effects
laminarin,Blocking of C. albicans binding on immature monocyte derived DC (β2-integrin / Dectin-1 interference),[2],did not show any block
same,Inhibition of imDC/Candida binding (FIG. 5),[2],only minor effects
"β-1,2-oligomannoside",Inhibition of imDC/Candida binding (FIG. 5),[2],greatly inhibited binding
"ICAM-3-Fc (Fc fusion, UniProt P32942 30-485, looked up, Coated on carboxylate-modified TransFluorSpheres; also called ICAM-3-Fc coated beads; ICAM-3 fluorescent beads; not shown: Fc part) QEFLLRVEPQNPVLSAGGSLFVNCSTDCPSSEKIALETSLSKELVASGMGWAAFNLSNVTGNSRILCSVYCNGSQITGSSNITVYRLPERVELAPLPPWQPVGQNFTLRCQVEDGSPRTSLTVVLLRWEEELSRQPAVEEPAEVTATVLASRDDHGAPFSCRTELDMQPQGLGLFVNTSAPRQLRTFVLPVTPPRLVAPRFLEVETSWPVDCTLDGLFPASEAQVYLALGDQMLNATVMNHGDTLTATATATARADQEGAREIVCNVTLGGERREARENLTVFSFLGPIVNLSEPTAHEGSTVTVSCMAGARVQVTLDGVPAAAPGQPAQLQLNATESDDGRSFFCSATLEVDGEFLHRNSSVQLRVLYGPKIDRATCPQHLKWKDKTRHVLQCQARGNPYPELRCLKEGSSREVPVGIPFFVNVTHNGTYQCQASSSRGKYTLVVVMDIEAGSSH",binding result,[4],no binding
